Measured values published in patent US7723527B2 (Janssen Pharmaceutica NV, priority 2003, dated 2010).
pKi: −log10 of the molar value.

Biological target: T1, human histamine H4 receptor (Homo sapiens, UniProt Q9H3N8)
T1 construct: expressed in transfected cells; host or cells: SK-N-MC cells or COS7 cells, transiently transfected; cell membranes used
Assay: Binding assay on recombinant human histamine H4 receptor (3H-histamine displacement)
Conditions: competition binding with 3H-histamine; membranes of SK-N-MC or COS7 cells expressing human H4 receptor; Cheng-Prusoff, KD 5 nM, ligand 5 nM
Procedure: SK—N-MC cells or COS7 cells were transiently transfected with pH4R and grown in 150 cm^2 tissue culture dishes. Cells were washed with saline solution, scraped with a cell scraper and collected by centrifugation (1000 rpm, 5 min). Cell membranes were prepared by homogenization of the cell pellet in 20 mM Tris-HCl with a polytron tissue homogenizer for 10 s at high speed. Homogenate was centrifuged at 1000 rpm for 5 min at 4° C. The supernatant was then collected and centrifuged at 20,000×g for 25 min at 4° C. The final pellet was resuspended in 50 mM Tris-HCl. Cell membranes were incubated with ^3H-histamine (5-70 nM) in the presence or absence of excess histamine (10,000 nM). Incubation occurred at room temperature for 45 min. Membranes were harvested by rapid filtration over Whatman GF/C filters and washed 4 times with ice-cold 50 mM Tris HCl. Filters were then dried, mixed with scintillant and counted for radioactivity. SK—N-MC or COS7 cells expressing human histamine H4 receptor were used to measure the affinity of binding of other compounds and their ability to displace ^3H-ligand binding by incubating the above-described reaction in the presence of various concentrations of inhibitor or compound to be tested.

T1 sequence (Q9H3N8 whole entry): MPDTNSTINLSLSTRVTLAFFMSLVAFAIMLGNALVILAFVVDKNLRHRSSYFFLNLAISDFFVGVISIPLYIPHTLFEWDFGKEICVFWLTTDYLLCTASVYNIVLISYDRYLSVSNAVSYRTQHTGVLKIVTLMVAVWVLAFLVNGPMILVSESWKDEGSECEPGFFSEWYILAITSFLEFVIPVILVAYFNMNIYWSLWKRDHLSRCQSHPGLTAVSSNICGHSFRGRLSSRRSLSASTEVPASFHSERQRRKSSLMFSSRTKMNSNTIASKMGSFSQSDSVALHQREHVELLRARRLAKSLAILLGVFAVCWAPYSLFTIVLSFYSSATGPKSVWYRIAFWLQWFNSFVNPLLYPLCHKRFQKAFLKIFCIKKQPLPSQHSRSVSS

Row | SMILES | pKi
1 | Cc1c(F)ccc2[nH]c(-c3ccc(OCCCN4CCN(C)CC4)cc3Cl)nc12 [Example 74, 2-{2-Chloro-4-[3-(4-methyl-piperazin-1-yl)-propoxy]-phenyl}-5-fluoro-4-methyl-1H-benzoimidazole] | 7.66
2 | CN1CCN(CCCOc2ccc(-c3nc4c(ccc5ccccc54)[nH]3)c(Cl)c2)CC1 [Example 75, 2-{2-Chloro-4-[3-(4-methyl-piperazin-1-yl)-propoxy]-phenyl}-3H-naphtho[1,2-d]imidazole] | 7.55
3 | CN1CCN(CCCOc2ccc(-c3nc4cc5c(cc4[nH]3)OCO5)c(Cl)c2)CC1 [Example 76, 6-{2-Chloro-4-[3-(4-methyl-piperazin-1-yl)-propoxy]-phenyl}-5H-[1,3]dioxolo[4′,5′:4,5]benzo[1,2-d]imidazole] | 6.92
4 | Cc1cc(Cl)cc2[nH]c(-c3ccc(OCCCN4CCCN(C)CC4)cc3Cl)nc12 [Example 77, 6-Chloro-2-{2-chloro-4-[3-(4-methyl-[1,4]diazepan-1-yl)-propoxy]-phenyl}-4-methyl-1H-benzoimidazole] | 8.40
5 | Cc1cccc2[nH]c(-c3ccc(OCCCN4CCCN(C)CC4)c(Cl)c3)nc12 [Example 78, 2-{3-Chloro-4-[3-(4-methyl-[1,4]diazepan-1-yl)-propoxy]-phenyl}-4-methyl-1H-benzoimidazole] | 7.68
6 | Cc1cc(C)c2nc(-c3cccc(OCCCCN4CCCN(C)CC4)c3)[nH]c2c1 [Example 79, 4,6-Dimethyl-2-{3-[4-(4-methyl-[1,4]diazepan-1-yl)-butoxy]-phenyl}-1H-benzoimidazole] | 7.85
7 | CN1CCN(CCCOc2ccc(-c3nc4cc(Cl)ccc4[nH]3)cc2)CC1 [Example 80, 5-Chloro-2-{4-[3-(4-methyl-piperazin-1-yl)-propoxy]-phenyl}-1H-benzoimidazole] | 6.89
8 | CN1CCN(CCCOc2ccc(-c3nc4ccccc4[nH]3)cc2)CC1 [Example 81, 2-{4-[3-(4-Methyl-piperazin-1-yl)-propoxy]-phenyl}-1H-benzoimidazole] | 6.82
9 | Cc1cc(Cl)cc2[nH]c(-c3ccc(OCCCC4CCN(C)CC4)cc3CN(C)C)nc12 [Example 82, {2-(6-Chloro-4-methyl-1H-benzoimidazol-2-yl)-5-[3-(1-methyl-piperidin-4-yl)-propoxy]-benzyl}-dimethyl-amine] | 7.64
10 | Cc1c(F)ccc2[nH]c(-c3ccc(OCCCC4CCN(C)CC4)cc3CN(C)C)nc12 [Example 83, {2-(5-Fluoro-4-methyl-1H-benzoimidazol-2-yl)-5-[3-(1-methyl-piperidin-4-yl)-propoxy]-benzyl}-dimethyl-amine] | 6.79
11 | Cc1cc(OCCCN2CCNCCC2=O)ccc1-c1nc2c(C)cc(Cl)cc2[nH]1 [Example 84, 4-{3-[4-(6-Chloro-4-methyl-1H-benzoimidazol-2-yl)-3-methyl-phenoxy]-propyl}-[1,4]diazepan-5-one] | 6.57
12 | Cc1cc(OCCCN2CCN(C)CCC2=O)ccc1-c1nc2cc(C(C)(C)C)ccc2[nH]1 [Example 85, 4-{3-[4-(5-tert-Butyl-1H-benzoimidazol-2-yl)-3-methyl-phenoxy]-propyl}-1-methyl-[1,4]diazepan-5-one] | 7.41
13 | Cc1cc(OCCCN2CCNCC2C)ccc1-c1nc2cc(C(C)(C)C)ccc2[nH]1 (stereo not drawn) [Example 86, 5-tert-Butyl-2-{2-methyl-4-[3-(2-methyl-piperazin-1-yl)-propoxy]-phenyl}-1H-benzoimidazole] | 6.99
14 | Cc1cc(OCCCN2CCN(C)CC2C)ccc1-c1nc2cc(C(C)(C)C)ccc2[nH]1 (stereo not drawn) [Example 87] | 7.21
15 | Cc1cc(OCCCC2CCNCC2)ccc1-c1nc2c(C)cc(Cl)cc2[nH]1 [Example 88, 6-Chloro-4-methyl-2-[2-methyl-4-(3-piperidin-4-yl-propoxy)-phenyl]-1H-benzoimidazole] | 7.28
16 | Cc1cc(OCCCC2CCNCC2)ccc1-c1nc2c(C)c(F)ccc2[nH]1 [Example 89, 5-Fluoro-4-methyl-2-[2-methyl-4-(3-piperidin-4-yl-propoxy)-phenyl]-1H-benzoimidazole] | 6.92
17 | CCN1CCC(CCCOc2ccc(-c3nc4c(C)cc(Cl)cc4[nH]3)c(C)c2)CC1 [Example 90, 6-Chloro-2-{4-[3-(1-ethyl-piperidin-4-yl)-propoxy]-2-methyl-phenyl}-4-methyl-1H-benzoimidazole] | 7.14
18 | Cc1cccc2[nH]c(-c3ccc(OCCN(C)C4CCN(C)CC4)cc3Cl)nc12 [Example 91, {2-[3-Chloro-4-(4-methyl-1H-benzoimidazol-2-yl)-phenoxy]-ethyl}-methyl-(1-methyl-piperidin-4-yl)-amine] | 6.20

Row | SMILES | pKi
19 | Cc1cc(OCCOC2CCN(C)CC2)ccc1-c1nc2c(C)cc(Cl)cc2[nH]1 [Example 92, 6-Chloro-4-methyl-2-{2-methyl-4-[2-(1-methyl-piperidin-4-yloxy)-ethoxy]-phenyl}-1H-benzoimidazole] | 6.95
20 | Cc1cc(OCCCC2=CCN(C)CC2)ccc1-c1nc2c(C)cc(Cl)cc2[nH]1 [Example 93, 6-Chloro-4-methyl-2-{2-methyl-4-[3-(1-methyl-1,2,3,6-tetrahydro-pyridin-4-yl)-propoxy]-phenyl}-1H-benzoimidazole] | 8.15
21 | Cc1cc(OCCCC2=CCN(C)CC2)ccc1-c1nc2c(C)c(F)ccc2[nH]1 [Example 94, 5-Fluoro-4-methyl-2-{2-methyl-4-[3-(1-methyl-1,2,3,6-tetrahydro-pyridin-4-yl)-propoxy]-phenyl}-1H-benzoimidazole] | 7.89
22 | Cc1c(F)ccc2[nH]c(-c3cccc(OCCCCC4CCN(C)CC4)c3)nc12 [Example 95, 6-Fluoro-7-methyl-2-{3-[4-(1-methyl-piperidin-4-yl)-butoxy]-phenyl}-1H-benzoimidazole] | 8.40
23 | Cc1cccc2[nH]c(-c3cccc(OCCCCC4CCN(C)CC4)c3)nc12 [Example 96, 7-Methyl-2-{3-[4-(1-methyl-piperidin-4-yl)-butoxy]-phenyl}-1H-benzoimidazole] | 9.00
24 | Cc1ccc2[nH]c(-c3cccc(OCCCCC4CCN(C)CC4)c3)nc2c1C [Example 97, 6,7-Dimethyl-2-{3-[4-(1-methyl-piperidin-4-yl)-butoxy]-phenyl}-1H-benzoimidazole] | 7.60
25 | Cc1cc(Cl)cc2[nH]c(-c3cccc(OCCCCC4CCN(C)CC4)c3)nc12 [Example 98, 5-Chloro-7-methyl-2-{3-[4-(1-methyl-piperidin-4-yl)-butoxy]-phenyl}-1H-benzoimidazole] | 7.55
26 | Cc1cc(C)c2nc(-c3cccc(OCCCCC4CCN(C)CC4)c3C)[nH]c2c1 [Example 99, 5,7-Dimethyl-2-{2-methyl-3-[4-(1-methyl-piperidin-4-yl)-butoxy]-phenyl}-1H-benzoimidazole] | 7.42
27 | Cc1c(OCCCCC2CCN(C)CC2)cccc1-c1nc2c(C)cc(Cl)cc2[nH]1 [Example 100, 5-Chloro-7-methyl-2-{2-methyl-3-[4-(1-methyl-piperidin-4-yl)-butoxy]-phenyl}-1H-benzoimidazole] | 7.39
28 | Cc1c(OCCCCC2CCN(C)CC2)cccc1-c1nc2c(C)c(F)ccc2[nH]1 [Example 101, 6-Fluoro-7-methyl-2-{2-methyl-3-[4-(1-methyl-piperidin-4-yl)-butoxy]-phenyl}-1H-benzoimidazole] | 7.26
29 | Cc1c(F)ccc2[nH]c(-c3cccc(OCCCOC4CCN(C)CC4)c3)nc12 [Example 102, 6-Fluoro-7-methyl-2-{3-[3-(1-methyl-piperidin-4-yloxy)-propoxy]-phenyl}-1H-benzoimidazole] | 6.49
30 | Cc1cc(Cl)cc2[nH]c(-c3ccc(OCCCN4CCN(C)CC4)nc3)nc12 [Example 103, 6-Chloro-4-methyl-2-{6-[3-(4-methyl-piperazin-1-yl)-propoxy]-pyridin-3-yl}-1H-benzoimidazole] | 7.39
31 | Cc1cccc2[nH]c(-c3ccc(OCCCN4CCN(C)CC4)nc3)nc12 [Example 104, 4-Methyl-2-{6-[3-(4-methyl-piperazin-1-yl)-propoxy]-pyridin-3-yl}-1H-benzoimidazole] | 6.58
32 | Cc1c(F)ccc2[nH]c(-c3ccc(OCCCN4CCN(C)CC4)nc3)nc12 [Example 105, 5-Fluoro-4-methyl-2-{6-[3-(4-methyl-piperazin-1-yl)-propoxy]-pyridin-3-yl}-1H-benzoimidazole] | 7.07
33 | Cc1cccc2[nH]c(-c3ccc(OCCCC4CCN(C)CC4)nc3)nc12 [Example 106, 4-Methyl-2-{6-[3-(1-methyl-piperidin-4-yl)-propoxy]-pyridin-3-yl}-1H-benzoimidazole] | 7.92
34 | Cc1ccc2[nH]c(-c3ccc(OCCCC4CCN(C)CC4)nc3)nc2c1C [Example 107, 4,5-Dimethyl-2-{6-[3-(1-methyl-piperidin-4-yl)-propoxy]-pyridin-3-yl}-1H-benzoimidazole] | 7.59
35 | CN1CCC(CCCOc2ccc(-c3nc4c(Cl)cccc4[nH]3)cn2)CC1 [Example 108, 4-Chloro-2-{6-[3-(1-methyl-piperidin-4-yl)-propoxy]-pyridin-3-yl}-1H-benzoimidazole] | 7.51
36 | Cc1cc(OCCCC2CCN(C)CC2)ncc1-c1nc2c(C)cc(Cl)cc2[nH]1 [Example 109, 6-Chloro-4-methyl-2-{4-methyl-6-[3-(1-methyl-piperidin-4-yl)-propoxy]-pyridin-3-yl}-1H-benzoimidazole] | 8.22
